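1) Cells in 96-well plates. 2) Compound, 48 h, 5 concentrations. 3) Linear interpolation between surrounding doses. 4) Unreached endpoint = highest concentration. Abbreviation: GI50, concentration required for 50% inhibition of growth.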 Active and inactive are the calls of the source. No stated cut-off is given here; in the data, active = GI50 up to about 1.1 µM and inactive = higher.
Columns and labels:
Assay in all cases: growth of human tumour cells (NCI), 48 h
OVCAR-5 = system: OVCAR-5
SNB-75 = system: SNB-75
LOX IMVI = system: LOX IMVI
SF-268 = system: SF-268
786-0 = system: 786-0
NCI-H23 = system: NCI-H23
UACC-257 = system: UACC-257
SK-MEL-28 = system: SK-MEL-28
Hs-578T = system: Hs-578T
SF-295 = system: SF-295
OVCAR-8 = system: OVCAR-8
SW-620 = system: SW-620
SF-539 = system: SF-539
K562 = system: K562
SK-MEL-2 = system: SK-MEL-2
M14 = system: M14
A498 = system: A498
MCF7 = system: MCF7

Measured: GI50

OCC(CCc1ccccc1I)C1=CCC2(CC1)OCCO2 (stereo not drawn)
inactive: OVCAR-5 15.7 µM | SNB-75 19.4 µM | LOX IMVI 14.9 µM | SF-268 17.8 µM | 786-0 19.9 µM | NCI-H23 20.5 µM | UACC-257 21.6 µM | SK-MEL-28 17.7 µM | Hs-578T 20.7 µM | SF-295 16.4 µM | OVCAR-8 17 µM | SW-620 23.4 µM | SF-539 17.6 µM | K562 > 100 µM | SK-MEL-2 23.9 µM | M14 20 µM | A498 24.1 µM | MCF7 23.3 µM

COc1ccc(N2C(=O)C(=O)N(c3ccc(/N=N\c4ccccc4)cc3)C2=S)cc1
inactive: OVCAR-5 21.1 µM | SNB-75 22.6 µM | LOX IMVI 18.7 µM | SF-268 22.1 µM | 786-0 17.5 µM | NCI-H23 18.5 µM | UACC-257 18.4 µM | SK-MEL-28 23.2 µM | Hs-578T 27.4 µM | SF-295 18.7 µM | OVCAR-8 17.9 µM | SW-620 18.7 µM | SF-539 19.2 µM | K562 37.5 µM | SK-MEL-2 17.9 µM | A498 23.8 µM

COc1cc2oc(=O)ccc2cc1C1OC(=O)C2OC21C (stereo not drawn)
inactive: OVCAR-5 > 100 µM | SNB-75 > 100 µM | LOX IMVI > 100 µM | SF-268 > 100 µM | 786-0 > 100 µM | NCI-H23 > 100 µM | UACC-257 > 100 µM | SK-MEL-28 > 100 µM | Hs-578T 54.6 µM | SF-295 > 100 µM | OVCAR-8 > 100 µM | SW-620 > 100 µM | SF-539 > 100 µM | K562 > 100 µM | SK-MEL-2 > 100 µM | M14 > 100 µM | MCF7 > 100 µM

Cc1cc(C)n(C(C)(C(=O)Cc2ccccc2)n2nc(C)cc2C)n1
inactive: OVCAR-5 > 100 µM | LOX IMVI > 100 µM | SF-268 > 100 µM | 786-0 > 100 µM | NCI-H23 > 100 µM | SK-MEL-28 > 100 µM | Hs-578T > 100 µM | SF-295 > 100 µM | OVCAR-8 > 100 µM | SW-620 > 100 µM | SF-539 > 100 µM | K562 > 100 µM | SK-MEL-2 > 100 µM | M14 > 100 µM | A498 > 100 µM | MCF7 > 100 µM

CCOC(=O)C(=O)CC1=Nc2ccccc2SC(c2cccc(C)c2)C1 (stereo not drawn)
inactive: OVCAR-5 16.8 µM | SNB-75 18.9 µM | SF-268 16.8 µM | 786-0 17.9 µM | NCI-H23 17.1 µM | UACC-257 19 µM | SK-MEL-28 14.6 µM | OVCAR-8 12.6 µM | SW-620 25.6 µM | SF-539 19 µM | K562 19.7 µM | SK-MEL-2 16.3 µM | M14 18.6 µM | A498 18.1 µM

O=c1[nH]n(Cc2ccccc2Cl)c2ccc([N+](=O)[O-])cc12
inactive: OVCAR-5 > 100 µM | SNB-75 47.2 µM | LOX IMVI > 100 µM | SF-268 49.9 µM | 786-0 46.6 µM | NCI-H23 49.8 µM | UACC-257 > 100 µM | SK-MEL-28 55.8 µM | Hs-578T 48.9 µM | OVCAR-8 42.3 µM | SW-620 53.7 µM | SF-539 54.2 µM | K562 29 µM | SK-MEL-2 34.7 µM | M14 > 100 µM | A498 22.3 µM

O=C(CSc1nc(-c2ccccc2)c(-c2ccccc2)[nH]1)NNC(=S)Nc1ccccc1
inactive: OVCAR-5 > 100 µM | SNB-75 > 100 µM | LOX IMVI 71 µM | SF-268 > 100 µM | 786-0 > 100 µM | NCI-H23 > 100 µM | UACC-257 > 100 µM | SK-MEL-28 > 100 µM | SF-295 49.9 µM | OVCAR-8 46.7 µM | SW-620 > 100 µM | SF-539 > 100 µM | SK-MEL-2 > 100 µM | M14 94.6 µM | A498 > 100 µM

Cc1ccc(S(=O)(=O)c2c(N)c3nc4ccccc4n3c3nc4ccccc4nc23)cc1
inactive: OVCAR-5 > 100 µM | SNB-75 > 100 µM | LOX IMVI > 100 µM | SF-268 > 100 µM | 786-0 4.93 µM | NCI-H23 > 100 µM | UACC-257 > 100 µM | SK-MEL-28 > 100 µM | SF-295 > 100 µM | OVCAR-8 > 100 µM | SW-620 > 100 µM | SF-539 9.27 µM | K562 > 100 µM | SK-MEL-2 > 100 µM | M14 > 100 µM

O=C1NC(=O)[C@@H](OCC2CCCCC2)[C@@H]2OCC3OC(C(O)C3O)C12 (stereo partly drawn)
inactive: OVCAR-5 > 100 µM | LOX IMVI > 100 µM | SF-268 > 100 µM | 786-0 > 100 µM | NCI-H23 > 100 µM | UACC-257 > 100 µM | SK-MEL-28 > 100 µM | Hs-578T > 100 µM | SF-295 > 100 µM | OVCAR-8 > 100 µM | SW-620 > 100 µM | SF-539 > 100 µM | SK-MEL-2 > 100 µM | M14 > 100 µM | A498 > 100 µM | MCF7 > 100 µM

Source: ChEMBL document CHEMBL1201862, “PubChem BioAssay data set” (2004)
